# Source: paper PMC9867208, “Lipophilicity and ADMET Analysis of Quinoline-1,4-quinone Hybrids” (Pharmaceutics, 2022)
# Where two headings read alike, the source gives them in different places.
# Key:
# [1] = Experimental lipophilicity by RP-TLC; conditions: for φ0 (hydrophobicity index): φ0 = −RM0/b
# Text: The RP-TLC method was used to determine the experimental lipophilicity according to the literature. Modified silica gel was used as the stationary phase and a mixture of tris(hydroxymethyl)aminomethane (TRIS) (0.2 M, pH = 7.4) with acetone as the mobile phase. […] For this reason, an aprotic solvent such as acetone was chosen as the mobile phase.
# Spots were visualized in iodine vapor.
# The retardation parameter (Rf) was converted to the RM parameter according to Equation (1):(1) RM=log(1/Rf−1)
# The RM parameter was calculated for every concentration of acetone and extrapolated to zero concentration of organic solvent in the mobile phase. The chromatographic parameter of lipophilicity (RM0) was calculated using Equation (2):(2) RM=RM0+bC where C is the concentration of acetone in the mobile phase, while b is the slope of the regression plot.
# In the next step, the relative lipophilicity parameter RM0 was converted to the absolute lipophilicity parameter logPTLC using the calibration curve.
# Lipophilicity correlates with hydrophobicity, which determines the solubility of the compound in water. The hydrophobicity is described by the hydrophobicity index (φ0), which can be calculated according to Equation (4). (4) φ0=−RM0/b
# [2] = tested on: NAD(P)H quinone dehydrogenase 1 (NQO1); conditions: cited from earlier work
# [3] = RP-TLC, acetone/TRIS 0.2 M pH 7.4, extrapolated to zero acetone
# [4] = from RM0 by calibration curve Equation (3)
chromatographic logP [1],"RM0 (chromatographic parameter of lipophilicity) [1, 3]",φ0 (hydrophobicity index) [1],logPTLC (experimental lipophilicity) [1],RM0 (chromatographic parameter of lipophilicity) ([1]; pH 7.4),SMILES,logNQO1 (enzymatic conversion rate of NQO1) [2],"logPTLC (experimental lipophilicity) [1, 4]"
5.06,4.51 ± 0.02,76.85,,,O=C1C(Cl)=C(Oc2cccc3ccc(Cl)nc23)C(=O)c2ccccc21 [Compound 22],3.000,
4.16,3.72 ± 0.02,81.13,,,O=C1C(Cl)=C(Oc2cccc3ccc(N4CCCC4)nc23)C(=O)c2ccccc21 [Compound 23],2.549,
4.5,4.01 ± 0.01,75.95,,,O=C1C(Cl)=C(Oc2cccc3ccc(N4CCOCC4)nc23)C(=O)c2ccccc21 [Compound 24],1.940,
,,69.97,2.00,1.82 ± 0.02,Cc1ccc2c(n1)C(=O)C(Oc1cccc3ccc(C)nc13)=C(Cl)C2=O [Compound 14],3.157,
0.54,0.54,,,,"NC(=O)c1ccccc1 [A, benzamide, reference compound]",,
2.26,2.05 ± 0.01,71.78,,,Cc1ccc2c(n1)C(=O)C(Oc1cccc3ccc(C=O)nc13)=C(Cl)C2=O [Compound 15],2.672,
1.75,1.60 ± 0.03,68.09,,,O=Cc1ccc2cccc(OC3=C(Cl)C(=O)c4cccnc4C3=O)c2n1 [Compound 3],3.041,
2.72,2.45 ± 0.02,73.71,,,O=Cc1ccc2cccc(OC3=C(Cl)C(=O)c4ccncc4C3=O)c2n1 [Compound 9],2.502,
2.55,2.55 ± 0.02,65.88,,,O=C1C(Cl)=C(Oc2cccc3ccc(Cl)nc23)C(=O)c2ncccc21 [Compound 4],2.903,
,,72.57,2.40,2.17 ± 0.01,O=C1C(Cl)=C(Oc2cccc3cccnc23)C(=O)c2cnccc21 [Compound 7],3.083,
3.79,3.39 ± 0.03,75.30,,,Cc1ccc2c(n1)C(=O)C(Oc1cccc3ccc(N4CCCC4)nc13)=C(Cl)C2=O [Compound 17],2.778,
3.68,3.30 ± 0.02,72.22,,,O=C1C(Cl)=C(Oc2cccc3ccc(N4CCOCC4)nc23)C(=O)c2cnccc21 [Compound 12],2.155,
4.61,4.11 ± 0.01,80.01,,,O=Cc1ccc2cccc(OC3=C(Cl)C(=O)c4ccccc4C3=O)c2n1 [Compound 21],2.740,
2.72,2.45 ± 0.04,66.81,,,O=C1C(Cl)=C(Oc2cccc3ccc(N4CCOCC4)nc23)C(=O)c2ncccc21 [Compound 6],2.053,
3.15,2.83 ± 0.03,74.76,,,O=C1C(Cl)=C(Oc2cccc3ccc(N4CCCC4)nc23)C(=O)c2cnccc21 [Compound 11],2.330,
,,72.87,1.65,1.51 ± 0.02,O=C1C(Cl)=C(Oc2cccc3cccnc23)C(=O)c2ncccc21 [Compound 1],3.146,
,,68.99,1.84,1.68 ± 0.03,Cc1ccc2cccc(OC3=C(Cl)C(=O)c4cccnc4C3=O)c2n1 [Compound 2],3.112,
,,66.07,2.31,2.09 ± 0.02,Cc1ccc2c(n1)C(=O)C(Oc1cccc3cccnc13)=C(Cl)C2=O [Compound 13],3.178,
,,74.47,2.85,2.56 ± 0.02,Cc1ccc2cccc(OC3=C(Cl)C(=O)c4ccncc4C3=O)c2n1 [Compound 8],3.058,
3.3,2.96 ± 0.01,69.66,,,Cc1ccc2c(n1)C(=O)C(Oc1cccc3ccc(Cl)nc13)=C(Cl)C2=O [Compound 16],2.949,
2.98,2.69 ± 0.03,68.95,,,Cc1ccc2c(n1)C(=O)C(Oc1cccc3ccc(N4CCOCC4)nc13)=C(Cl)C2=O [Compound 18],2.322,
2.6,2.35 ± 0.02,74.53,,,O=C1C(Cl)=C(Oc2cccc3ccc(N4CCCC4)nc23)C(=O)c2ncccc21 [Compound 5],3.034,
3.63,3.25 ± 0.01,78.21,,,O=C1C(Cl)=C(Oc2cccc3ccc(Cl)nc23)C(=O)c2cnccc21 [Compound 10],2.801,

SMILES,chromatographic logP [1],"RM0 (chromatographic parameter of lipophilicity) [1, 3]",φ0 (hydrophobicity index) [1],logPTLC (experimental lipophilicity) [1],RM0 (chromatographic parameter of lipophilicity) ([1]; pH 7.4),logNQO1 (enzymatic conversion rate of NQO1) [2],"logPTLC (experimental lipophilicity) [1, 4]"
"Clc1ccc(C(c2ccc(Cl)cc2)C(Cl)(Cl)Cl)cc1 [F, dichlorodiphenyltrichloroethane, reference compound]",,5.60,,,,,6.31
"CC(=O)c1ccc(Br)cc1 [C, 4-bromoacetophenone, reference compound]",,2.33,,,,,2.58
"CC(=O)Nc1ccccc1 [B, acetanilide, reference compound]",,1.11,,,,,1.19
"c1ccc2cc3ccccc3cc2c1 [E, anthracene, reference compound]",4.45,3.97,,,,,
O=C1C(Cl)=C(Oc2cccc3cccnc23)C(=O)c2ccccc21 [Compound 19],,2.90 ± 0.02,78.79,,,3.108,3.23
Cc1ccc2cccc(OC3=C(Cl)C(=O)c4ccccc4C3=O)c2n1 [Compound 20],,3.34 ± 0.01,79.55,,,3.100,3.73
